In this experiment the target is Tyrosine-protein kinase SYK (Homo sapiens, UniProt P43405). Put plainly: In Vitro Evaluation of Inhibitory Activity Against Syk Protein Kinase. Here is the method:
Test Procedure and Method:(a) Compound dilution and microplate injection1) Compound powder was weighed and dissolved in a specific amount of DMSO at an initial concentration of 10 mM.2) The compound was diluted to have a concentration of 0.74 mM, POD18 was used for microplate injection by 135 nL per well, an initial concentration of the compound was 10 μM, and 11 concentrations and 3-fold descending serial dilution were carried out.(b) Reaction stage of enzyme and substrate1) Preparation of test buffer dilution: 5×HTRF buffer in the kit was diluted to 1×HTRF buffer, and a specified amount of DTT and MgCl2 solution were added for later use.2) A Syk enzyme reaction solution was prepared with 1×HTRF buffer, so that a final reaction concentration of Syk kinase was 0.0156 ng/μL.3) A TK-Substrate-biotin/ATP mixture was prepared, so that a final substrate concentration was controlled to be 0.2 μM. An ATP concentration was controlled to be 2 μM.4) A mutidorp injector was used to add the sample, 5 μL of Syk enzyme solution and TK-Substrate-biotin/ATP mixture were added to each well, and incubated at 23° C. for 1 hour.

A word on the IC50: it is the midpoint of a concentration-inhibition curve. Regarding `c1cc(N2CCOCC2)ccc1NC1=Nc2ccc(-c3cn[nH]c3)cc2N2CCN=C12` [US20240132503, Compound Crystal form A Compound Formula 1], the IC50 was 25 nM.

These data come from BindingDB's records for patent US20240132503 (Ocumension Therapeutics (Suzhou) Co., 2024).
